In ChEMBL document CHEMBL1201862, “PubChem BioAssay data set” (2004):
The source made the active and inactive calls.

What was measured:
[1] = Shn3 3'UTR reporter inhibitors, dose response, cell-based, Clone20 osteoblasts, firefly luciferase, cherry-picked (AID 624132); format: functional;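 note: firefly luciferase luminescence from reporter carrying the Shn3 3'UTR in osteoblasts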
[2] = control 3'UTR Renilla luciferase suppression, dose response, counter-screen for Shn3 inhibitor project, cell-based, Clone20-Shn3RL, cherry-picked (AID 624133); format: functional
[3] = target: T1, High affinity choline transporter 1 (Homo sapiens, UniProt Q9GZV3); test: CHT inhibitors, dose response, cell-based, 5-point CRC, membrane potential dye (AID 504840); format: functional
T1 sequence (Q9GZV3 whole entry): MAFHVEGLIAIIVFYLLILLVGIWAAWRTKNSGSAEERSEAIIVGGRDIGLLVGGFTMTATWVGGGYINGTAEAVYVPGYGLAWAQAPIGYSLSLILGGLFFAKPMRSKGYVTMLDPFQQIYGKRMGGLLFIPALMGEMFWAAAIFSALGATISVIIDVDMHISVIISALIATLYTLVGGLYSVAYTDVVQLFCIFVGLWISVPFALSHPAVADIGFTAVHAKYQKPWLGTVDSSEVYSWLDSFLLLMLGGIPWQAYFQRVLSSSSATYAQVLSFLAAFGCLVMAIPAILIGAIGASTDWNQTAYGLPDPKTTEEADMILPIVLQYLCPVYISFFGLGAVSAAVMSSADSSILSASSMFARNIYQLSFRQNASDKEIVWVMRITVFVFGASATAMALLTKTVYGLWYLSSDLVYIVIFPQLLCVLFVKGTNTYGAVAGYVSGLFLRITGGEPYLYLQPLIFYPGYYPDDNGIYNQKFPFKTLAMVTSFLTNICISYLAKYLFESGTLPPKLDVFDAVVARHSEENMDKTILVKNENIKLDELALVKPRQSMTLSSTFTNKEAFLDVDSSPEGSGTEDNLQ

[4] = target: T2, Fatty acid synthase (Homo sapiens, UniProt P49327); test: FAS thioesterase domain inhibitors, dose response, biochemical, kinetic fluorescence intensity (AID 624326); format: functional;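 note: rate of fluorescence rise from hydrolysis of a fluorogenic O-methyl fluorescein ester substrate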
[5] = target: T2, Fatty acid synthase; test: FAS thioesterase domain inhibitors, dose response, biochemical, endpoint fluorescence intensity, uHTS hits (AID 624327); format: functional;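 note: fluorescence from hydrolysis of an O-methyl fluorescein acyl ester substrate by the enzyme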
[6] = target: T3, Short transient receptor potential channel 4 (Mus musculus, UniProt Q9QUQ5); test: mouse TRPC4 channel activators, dose response, cell-based, HEK293 TRPC4/mu-opioid, Fluo-4 calcium (AID 434937); format: functional
T3 sequence (Q9QUQ5 whole entry): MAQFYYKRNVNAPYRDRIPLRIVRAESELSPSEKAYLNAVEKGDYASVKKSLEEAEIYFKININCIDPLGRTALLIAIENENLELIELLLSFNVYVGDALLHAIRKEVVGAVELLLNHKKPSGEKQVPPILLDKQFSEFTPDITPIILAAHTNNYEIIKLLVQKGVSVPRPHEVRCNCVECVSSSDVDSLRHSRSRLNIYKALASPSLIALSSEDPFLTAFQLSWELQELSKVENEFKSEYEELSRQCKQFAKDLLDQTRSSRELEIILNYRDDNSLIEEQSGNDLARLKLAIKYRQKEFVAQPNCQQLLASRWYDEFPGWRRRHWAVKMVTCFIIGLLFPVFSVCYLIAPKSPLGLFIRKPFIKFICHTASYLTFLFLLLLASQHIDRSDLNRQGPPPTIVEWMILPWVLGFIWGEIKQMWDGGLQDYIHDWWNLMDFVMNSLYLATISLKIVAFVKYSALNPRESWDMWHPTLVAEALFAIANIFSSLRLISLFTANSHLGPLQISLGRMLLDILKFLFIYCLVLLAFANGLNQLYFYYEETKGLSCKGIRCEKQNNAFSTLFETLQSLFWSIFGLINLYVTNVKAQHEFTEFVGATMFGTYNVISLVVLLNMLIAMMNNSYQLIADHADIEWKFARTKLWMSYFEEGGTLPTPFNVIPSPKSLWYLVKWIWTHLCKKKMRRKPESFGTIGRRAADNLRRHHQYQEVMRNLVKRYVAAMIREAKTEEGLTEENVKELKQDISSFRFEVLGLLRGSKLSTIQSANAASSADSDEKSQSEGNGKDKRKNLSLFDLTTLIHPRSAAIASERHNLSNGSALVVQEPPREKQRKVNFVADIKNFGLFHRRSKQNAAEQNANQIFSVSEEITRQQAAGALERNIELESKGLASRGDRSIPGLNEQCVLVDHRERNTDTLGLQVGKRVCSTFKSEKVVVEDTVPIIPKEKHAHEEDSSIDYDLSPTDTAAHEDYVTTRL

[7] = NIH:OVCAR-3 ovarian cancer cell cytotoxicity, dose response, PAX8 inhibitor project, plate reader, dry powder samples (AID 743044); format: functional, cell-based
[8] = target: Paired box protein Pax-8 (Homo sapiens, UniProt Q06710); test: inhibitors of PAX8-driven TPO luciferase reporter, dose response, RMG-I cells, cherry-pick (AID 687027); format: functional, cell-based;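 note: luciferase reporter driven by Pax8 target thyroperoxidase promoter measured by SteadyGlo luminescence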
[9] = target: T4, Protein skinhead-1 (Caenorhabditis elegans, UniProt P34707); format: functional
T4 sequence (P34707 whole entry): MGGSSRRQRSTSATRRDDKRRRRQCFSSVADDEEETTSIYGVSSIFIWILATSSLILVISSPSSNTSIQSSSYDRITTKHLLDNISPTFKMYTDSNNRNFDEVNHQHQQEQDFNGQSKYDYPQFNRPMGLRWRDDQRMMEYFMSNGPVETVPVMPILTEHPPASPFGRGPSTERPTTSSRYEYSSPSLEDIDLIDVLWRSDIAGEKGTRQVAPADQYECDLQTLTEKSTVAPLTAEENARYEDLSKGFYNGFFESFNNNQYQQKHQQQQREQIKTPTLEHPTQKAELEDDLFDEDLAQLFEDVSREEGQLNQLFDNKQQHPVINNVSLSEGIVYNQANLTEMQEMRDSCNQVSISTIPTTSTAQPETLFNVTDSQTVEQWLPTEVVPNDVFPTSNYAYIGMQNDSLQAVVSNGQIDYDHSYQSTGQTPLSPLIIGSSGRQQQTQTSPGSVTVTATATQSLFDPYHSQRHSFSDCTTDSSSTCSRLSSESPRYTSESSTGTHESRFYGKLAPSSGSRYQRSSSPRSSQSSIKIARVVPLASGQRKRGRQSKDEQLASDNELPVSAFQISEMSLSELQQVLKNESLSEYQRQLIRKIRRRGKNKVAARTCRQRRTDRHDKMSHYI

[10] = cells; format: functional, cell-based
[11] = cells; format: functional, cell-based; remark: listed apart in the source
[12] = target: FAD-linked sulfhydryl oxidase ALR (Homo sapiens, UniProt P55789); test: inhibitors of human ALR sulfhydryl oxidase, dose response, biochemical, H2O2 detection, luminescence, cherry-pick (AID 493248)
[13] = system: INS1; test: beta cell apoptosis inhibitors, cytokine rescue, dose response, luminescence, retest (AID 449756); format: functional, cell-based; conditions: Rattus norvegicus;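 note: cell death triggered by IL-1 beta plus TNF-alpha plus IFN-gamma mixture; protective hits raise ATP signal compared with cytokine alone wells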
[14] = target: T5, Polyadenylate-binding protein 1 (Homo sapiens, UniProt P11940); test: PABP1 MLLE–PAM2 interaction inhibitors, dose response, miRNA deadenylation inhibitor project, biochemical, fluorescence polarization, Cy5-PAM2 peptide, secondary (AID 602260); format: functional; conditions: read-out: IC50_Mean
[15] = target: T5, Polyadenylate-binding protein 1; test: PABP1 MLLE–PAM2 binding inhibitor potency, dose response, biochemical, fluorescence polarization, FITC-PAM2 peptide (AID 602259); format: functional; conditions: read-out: IC50_Mean
[16] = system: Streptococcus; test: Group A Streptococcus viability loss, dose response, counter-screen for streptokinase expression inhibitor project, luminescence, BacTiterGlo (AID 1915); format: functional, organism-based;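 note: potency for reduction of bacterial viability or growth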
[17] = system: Streptococcus sp. 'group A'; test: growth inhibition of control SK(-) GAS strain, dose response, counter-screen for streptokinase expression inhibitor project, luminescence, kanamycin, BacTiterGlo, confirmation (AID 1900); format: functional, organism-based
[18] = cytotoxicity toward NIH3T3 fibroblasts, dose response, counter-screen, cell-based, ATP luminescence, mouse fibroblasts (AID 2010); format: functional;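 note: cells exposed to compound for about 90 hours before reading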
[19] = inhibitors of intracellular T. cruzi replication, confirmation, NIH3T3 host cells, beta-gal luminescence (AID 2044); format: functional, cell-based;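 note: intracellular parasites grown in NIH/3T3 mouse fibroblasts as host cells; luminescent beta-galactosidase reporter signal from transgenic T. cruzi replicating inside host cells; inhibitors lower the luminescence signal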
[20] = Luminescence Cell-Based Dose Retest to Confirm Inhibitors of Cancer Stem Cells. [Related pubchem assays (depositor defined):AID2717, AID2721]; format: functional; conditions: Homo sapiens

T2 sequence (P49327 whole entry, the tested form may be a part): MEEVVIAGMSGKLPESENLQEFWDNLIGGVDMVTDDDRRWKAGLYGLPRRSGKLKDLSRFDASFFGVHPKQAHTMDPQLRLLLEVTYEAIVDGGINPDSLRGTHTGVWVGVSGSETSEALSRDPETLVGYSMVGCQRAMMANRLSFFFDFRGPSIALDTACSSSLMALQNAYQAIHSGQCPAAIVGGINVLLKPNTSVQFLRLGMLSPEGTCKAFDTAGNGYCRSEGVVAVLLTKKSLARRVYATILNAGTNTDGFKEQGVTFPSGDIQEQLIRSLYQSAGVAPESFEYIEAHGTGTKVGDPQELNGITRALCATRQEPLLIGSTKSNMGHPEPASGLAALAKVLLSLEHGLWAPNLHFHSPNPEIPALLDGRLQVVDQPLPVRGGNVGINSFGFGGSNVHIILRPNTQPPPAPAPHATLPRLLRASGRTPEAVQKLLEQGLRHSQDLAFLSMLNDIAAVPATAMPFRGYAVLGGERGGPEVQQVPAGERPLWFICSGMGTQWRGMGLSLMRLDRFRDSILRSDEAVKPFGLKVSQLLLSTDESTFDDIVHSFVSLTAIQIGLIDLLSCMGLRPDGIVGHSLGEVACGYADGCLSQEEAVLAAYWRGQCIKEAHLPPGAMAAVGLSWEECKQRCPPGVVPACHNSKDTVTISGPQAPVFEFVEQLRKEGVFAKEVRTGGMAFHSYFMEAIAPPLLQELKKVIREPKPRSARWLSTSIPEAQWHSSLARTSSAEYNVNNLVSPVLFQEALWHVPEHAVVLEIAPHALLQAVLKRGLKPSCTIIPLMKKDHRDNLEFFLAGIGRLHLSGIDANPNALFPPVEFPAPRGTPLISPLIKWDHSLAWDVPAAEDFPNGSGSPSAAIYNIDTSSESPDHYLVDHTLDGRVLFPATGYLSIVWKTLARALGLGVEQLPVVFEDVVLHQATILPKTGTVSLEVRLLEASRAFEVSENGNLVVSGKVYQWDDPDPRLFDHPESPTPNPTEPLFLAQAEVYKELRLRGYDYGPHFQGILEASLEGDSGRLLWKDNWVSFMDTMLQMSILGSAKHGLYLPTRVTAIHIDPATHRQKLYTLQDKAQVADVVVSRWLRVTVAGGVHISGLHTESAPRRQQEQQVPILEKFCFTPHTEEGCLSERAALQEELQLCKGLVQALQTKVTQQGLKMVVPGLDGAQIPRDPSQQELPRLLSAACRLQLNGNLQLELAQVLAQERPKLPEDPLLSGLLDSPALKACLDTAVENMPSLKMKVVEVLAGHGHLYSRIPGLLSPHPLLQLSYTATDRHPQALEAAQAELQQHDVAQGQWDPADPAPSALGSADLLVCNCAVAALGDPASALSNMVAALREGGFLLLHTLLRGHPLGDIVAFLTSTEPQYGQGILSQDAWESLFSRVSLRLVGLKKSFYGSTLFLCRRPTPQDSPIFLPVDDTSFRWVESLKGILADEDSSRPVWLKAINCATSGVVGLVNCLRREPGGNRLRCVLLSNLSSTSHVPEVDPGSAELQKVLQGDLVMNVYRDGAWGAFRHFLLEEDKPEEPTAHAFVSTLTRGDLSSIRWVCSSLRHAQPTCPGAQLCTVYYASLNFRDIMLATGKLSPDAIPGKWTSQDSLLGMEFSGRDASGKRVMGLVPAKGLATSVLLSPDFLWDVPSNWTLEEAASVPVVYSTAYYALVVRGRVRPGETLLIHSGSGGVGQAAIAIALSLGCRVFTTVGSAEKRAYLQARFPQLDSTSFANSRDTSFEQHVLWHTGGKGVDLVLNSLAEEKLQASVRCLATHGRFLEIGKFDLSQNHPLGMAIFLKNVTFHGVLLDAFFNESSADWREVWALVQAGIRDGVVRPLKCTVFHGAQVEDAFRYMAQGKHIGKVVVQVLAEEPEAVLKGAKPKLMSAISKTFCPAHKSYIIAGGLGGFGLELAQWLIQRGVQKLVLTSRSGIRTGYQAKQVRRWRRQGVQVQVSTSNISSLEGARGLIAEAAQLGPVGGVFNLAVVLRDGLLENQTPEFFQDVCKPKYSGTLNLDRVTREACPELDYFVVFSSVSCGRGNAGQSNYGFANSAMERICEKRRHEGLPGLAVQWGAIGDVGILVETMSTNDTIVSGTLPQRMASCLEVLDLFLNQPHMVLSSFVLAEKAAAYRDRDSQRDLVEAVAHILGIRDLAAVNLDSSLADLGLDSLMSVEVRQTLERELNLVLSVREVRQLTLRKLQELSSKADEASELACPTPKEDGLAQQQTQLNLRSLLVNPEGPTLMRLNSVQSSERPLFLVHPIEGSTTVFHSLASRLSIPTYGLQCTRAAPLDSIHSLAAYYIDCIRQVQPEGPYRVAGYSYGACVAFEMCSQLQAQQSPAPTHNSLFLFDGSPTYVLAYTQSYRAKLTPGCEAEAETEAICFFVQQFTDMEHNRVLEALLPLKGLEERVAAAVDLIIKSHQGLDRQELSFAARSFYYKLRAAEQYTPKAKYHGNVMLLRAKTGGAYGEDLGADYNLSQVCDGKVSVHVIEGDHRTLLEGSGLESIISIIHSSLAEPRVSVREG
FAD-linked sulfhydryl oxidase ALR, sequence (P55789 whole entry): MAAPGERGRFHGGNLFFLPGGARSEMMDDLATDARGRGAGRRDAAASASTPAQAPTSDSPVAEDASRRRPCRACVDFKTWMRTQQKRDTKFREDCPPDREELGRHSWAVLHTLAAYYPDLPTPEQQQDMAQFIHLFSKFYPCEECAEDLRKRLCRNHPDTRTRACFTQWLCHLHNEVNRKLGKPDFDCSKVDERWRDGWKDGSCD
T5 sequence (P11940 whole entry): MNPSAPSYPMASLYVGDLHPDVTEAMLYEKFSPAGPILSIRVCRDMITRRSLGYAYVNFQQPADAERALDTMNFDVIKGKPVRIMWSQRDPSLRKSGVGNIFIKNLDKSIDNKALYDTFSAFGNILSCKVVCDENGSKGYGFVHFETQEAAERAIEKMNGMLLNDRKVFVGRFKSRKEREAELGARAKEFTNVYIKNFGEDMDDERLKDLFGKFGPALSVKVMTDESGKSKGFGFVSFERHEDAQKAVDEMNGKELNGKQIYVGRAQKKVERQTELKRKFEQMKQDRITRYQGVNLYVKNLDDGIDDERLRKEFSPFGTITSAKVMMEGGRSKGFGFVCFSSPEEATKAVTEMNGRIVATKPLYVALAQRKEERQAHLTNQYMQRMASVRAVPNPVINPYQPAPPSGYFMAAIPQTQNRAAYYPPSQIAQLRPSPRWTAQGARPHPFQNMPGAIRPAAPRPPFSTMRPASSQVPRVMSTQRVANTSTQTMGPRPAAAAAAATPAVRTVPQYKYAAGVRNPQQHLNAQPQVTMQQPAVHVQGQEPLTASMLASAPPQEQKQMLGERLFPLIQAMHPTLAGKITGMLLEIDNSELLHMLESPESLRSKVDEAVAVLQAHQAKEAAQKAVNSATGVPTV
Paired box protein Pax-8, sequence (Q06710 whole entry): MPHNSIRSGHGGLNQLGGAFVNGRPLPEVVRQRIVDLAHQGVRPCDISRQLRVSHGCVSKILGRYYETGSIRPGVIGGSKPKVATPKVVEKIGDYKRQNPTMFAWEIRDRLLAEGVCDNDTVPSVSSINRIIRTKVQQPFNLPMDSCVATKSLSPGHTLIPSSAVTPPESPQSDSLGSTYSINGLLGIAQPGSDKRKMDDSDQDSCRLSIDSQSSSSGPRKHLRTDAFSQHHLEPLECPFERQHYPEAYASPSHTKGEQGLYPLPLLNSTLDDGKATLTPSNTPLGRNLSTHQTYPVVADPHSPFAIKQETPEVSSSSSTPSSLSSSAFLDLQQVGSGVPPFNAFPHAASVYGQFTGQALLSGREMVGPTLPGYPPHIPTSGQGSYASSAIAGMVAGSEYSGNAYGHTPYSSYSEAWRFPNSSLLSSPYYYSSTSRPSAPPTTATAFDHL

SMILES: C[C@H]1CCC/C=C/[C@@H]2C[C@H](O)C[C@H]2[C@@H](O)/C=C/C(=O)O1
- AC50 [1]: 2.17 µM (active)
- AC50 [2]: 1.7 µM (active)

SMILES: Cc1cccc(C)c1NC(=O)c1ccc(CN2CCc3ccccc3C2)cc1
- IC50 [3]: 18.2 µM (active)

SMILES: O=C(COC(=O)c1cc([N+](=O)[O-])ccc1N1CCOCC1)NCc1ccc(Cl)cc1Cl
- IC50 [4]: 1.05 µM (active)
- IC50 [5]: 0.912 µM (active)

SMILES: CCCc1cc(O)c2c(C)cc(=O)oc2c1
- IC50 [3]: 14.5 µM (active)

SMILES: O=S(=O)(Nc1cccc(-n2cnnn2)c1)c1cnc(Cl)c(Cl)c1
- IC50 [4]: 8.01 µM (active)
- IC50 [5]: 5.37 µM (active)

SMILES: Clc1cc(Cl)cc(C2=NC(Cc3ccccc3)CO2)c1 (stereo unspecified)
- EC50 [6]: 5.31 µM (active)

SMILES: C[C@@H]1CN([C@H](C)CO)C(=O)c2cccc(NC(=O)Nc3cccc4ccccc34)c2O[C@H]1CN(C)C(=O)Nc1ccc(C(F)(F)F)cc1
- AC50 [7]: 64.2 µM (active)
- AC50 [8]: 14.6 µM (active)

SMILES: CC(C)(C)C(=O)Nc1nc(C2CCCN2S(=O)(=O)c2ccc(Cl)cc2)cs1 (stereo unspecified)
- IC50 [4]: 8.77 µM (active)
- IC50 [5]: 9.08 µM (active)

SMILES: CCCCOC(=O)c1ccc(NC(=O)/C=C/c2cccs2)cc1
- IC50 [9]: > 100 µM (inactive)

SMILES: Cc1ccc(NC(=S)N(Cc2cccs2)Cc2cc3cccc(C)c3nc2O)cc1
- EC50 [10]: > 350 µM (not active)
- EC50 [11]: > 350 µM (not active)

SMILES: CCN1CCN(Cc2cc(Br)cc(Br)c2O)CC1
- EC50 [6]: 0.0667 µM (active)
- AC50 [12]: 11.2 µM (active)

SMILES: CC1(C)CC(=O)C=C(c2ccc(COC(=O)c3ccccc3)cc2)C1=O
- IC50 [4]: 3.75 µM (active)
- IC50 [5]: 7.19 µM (active)

SMILES: c1ccc(CSc2ccc(-c3ccco3)nn2)cc1
- IC50 [9]: > 100 µM (inactive)

SMILES: CN(C)C(CNC(=O)Nc1cccc(Cl)c1)c1cccnc1 (stereo unspecified)
- EC50 [6]: 0.0267 µM (active)

SMILES: COc1ccc(C(=O)N(C)CCCC2CCCC2)cc1OC1CCN(C(C)C)CC1
- IC50 [3]: 12 µM (active)

SMILES: O=C(NNS(=O)(=O)c1ccc([N+](=O)[O-])cc1)c1cnn(-c2ccccc2)c1-n1cccc1
- IC50 [4]: 4.35 µM (active)
- IC50 [5]: 4.5 µM (active)

SMILES: O=C(N/N=C\c1c(O)ccc2ccccc12)c1ccc(Cn2cccn2)o1
- EC50 [10]: 82 µM (active)
- EC50 [11]: > 350 µM (not active)
- AC50 [13]: 1.23 µM (active)

SMILES: O=C(NC1=NCCS1)c1csc2ccccc12
- IC50 [14]: > 66 µM (inactive)
- AC50 [12]: 0.582 µM (active)
- IC50 [15]: > 66 µM (inactive)

SMILES: CC#CCN(CC#CC)S(=O)(=O)c1ccc(-n2cnnn2)c(OC)c1
- IC50 [3]: 3.16 µM (active)

SMILES: Cc1ccc(C(=O)NCCNc2ncc(C(F)(F)F)cc2Cl)cc1[N+](=O)[O-]
- IC50 [4]: 9.8 µM (active)
- IC50 [5]: 8.99 µM (active)

SMILES: CC1(C)CC(NC(=O)CCC2CCCC2)CC(C)(C)N1
- EC50 [10]: > 350 µM (not active)
- EC50 [11]: > 350 µM (not active)

SMILES: CCn1c(=O)c(C(=O)NNC(=O)c2ccccc2F)c(O)c2ccccc21
- EC50 [16]: 11.5 µM (active)
- EC50 [6]: 6.68 µM (active)
- EC50 [17]: 4.54 µM (active)

SMILES: CCN1CCN(CCCOc2ccc(-c3ccccc3)cc2)CC1
- EC50 [10]: > 350 µM (not active)
- EC50 [18]: 4.6 µM (active)
- EC50 [11]: > 350 µM (not active)
- EC50 [19]: 0.799 µM (active)
- AC50 [20]: 4.69 µM (active)

SMILES: O=C(NC(=S)Nc1ccccn1)c1cc(-c2ccccc2)nc2ccccc12
- EC50 [10]: > 350 µM (not active)
- EC50 [11]: 47.1 µM (active)

SMILES: CCCS(=O)(=O)N1CCC(C(=O)NCc2cccnc2)CC1
- IC50 [9]: > 100 µM (inactive)

SMILES: O=C(NC1=NCCS1)c1cccc(NC(=O)c2ccco2)c1
- EC50 [10]: > 350 µM (not active)
- EC50 [11]: > 350 µM (not active)

SMILES: c1ccc(-c2noc(CSc3nc4ccccc4o3)n2)cc1
- IC50 [9]: 75.7 µM (inactive)

SMILES: Cc1ccc(N/C=C/C(=O)c2cccs2)cc1C
- IC50 [9]: > 100 µM (inactive)

SMILES: Fc1ccccc1CSc1ccc(-c2ccco2)nn1
- IC50 [9]: 64.6 µM (inactive)

SMILES: CCn1c(SCc2nc(-c3ccccc3)no2)nnc1-c1ccco1
- IC50 [3]: 13.6 µM (active)

SMILES: Cc1ccc(Oc2ncc(CN3CC(C)OC(C)C3)s2)cc1 (stereo unspecified)
- EC50 [10]: > 350 µM (not active)
- EC50 [11]: > 350 µM (not active)

SMILES: Cc1cc(C)c(NC(=O)c2ccc(CN3CCc4ccccc4C3)cc2)c(C)c1
- IC50 [3]: 12.9 µM (active)
